{
  "source": "patent US20130115271A1",
  "about": "“PREDICTORS OF PHARMACOKINETIC AND PHARMACODYNAMIC DISPOSITION OF CARRIER-MEDIATED AGENTS” (THE UNIVERSITY OF NORTH CAROLINA AT CHAPEL HILL, priority 2010, published 2013)",
  "key": {"[1]": {"tested_on": "monocytes (MO)", "experiment": "Degree of monocytopenia in phase I studies of S-CKD602 and NL-CKD602", "format": "in vivo, human", "details": "patients with refractory solid tumors", "description": "(§1) To examine the relationship between S-CKD602 PK and monocytes (MO) in patients, we evaluated the degree of neutropenia and monocytopenia as part of phase I studies of S-CKD602 and non-liposomal CKD-602 (NL-CKD602) in patients with refractory solid tumors. After administration of NL-CKD602, the % decrease at nadir in absolute neutrophil count (ANC) and MO were 86±11% and 87±12%, respectively (P>0.05). For NL-CKD602, the ratio of % decrease in MO to ANC was 1.1±0.4. After administration of S-CKD602, the % decrease at nadir in ANC and MO were 42±30% and 58±34%, respectively (P=0.001). For S-CKD602, the ratio of % decrease in MO to ANC was 2.1±2.0. The relationship between the % decrease in MO at nadir and CL of encapsulated CKD-602 and the release of CKD-602 from S-CKD602 in plasma are presented in FIGS. 3 and 4, respectively. […] The CL of encapsulated drug and release of drug from the liposome in plasma is related to a reduction in MO. […] Consistent with the PK-PD interaction between S-CKD602 and MO we also have reported that decreased DOXIL® CL from cycle 1 to 3 is related to a reduction in MO during each subsequent cycle (Gabizon et al., (1994) Cancer Res. 54: 987-992; La-Beck et al., (2009) J. Clin. Oncol. 27(15S))."}, "[2]": {"tested_on": "absolute neutrophil count (ANC)", "experiment": "Degree of neutropenia in phase I studies of S-CKD602 and NL-CKD602", "format": "in vivo, human", "details": "patients with refractory solid tumors", "description": "as §1"}},
  "data": [
    {"smiles": "CC[C@@]1(O)C(=O)OCc2c1cc1n(c2=O)Cc2c-1nc1ccccc1c2CCNC(C)C", "note": "[NL-CKD602]", "values": [
      {"measurement": "% decrease at nadir in monocytes (MO)", "setting": "[1]", "result": "87±12", "unit": "%"},
      {"measurement": "ratio of % decrease in MO to ANC", "setting": "[1]", "result": "1.1±0.4"},
      {"measurement": "% decrease at nadir in absolute neutrophil count (ANC)", "setting": "[2]", "result": "86±11", "unit": "%"}
    ]}
  ]
}
